Measurements from ChEMBL document CHEMBL1151169, “New beta-caryophyllene-derived terpenoids from the soft coral Sinularia nanolobata” (2004).
≈ marks a conversion by molar mass, not a printed value.

Legend:
Format in all cases: functional
HeLa = test: Cytotoxicity against human HeLa cells by MTT assay; conditions: read-out: ED50 (the source's name)
[1] = Cytotoxicity against human HEPA 59T/VGH cells by MTT assay; conditions: read-out: ED50 (the source's name)
KB = test: Cytotoxicity against human KB cells by MTT assay; conditions: read-out: ED50 (the source's name)
[2] = Cytotoxicity against human Medulloblastoma cells by MTT assay; conditions: Medulloblastoma cell, read-out: ED50 (the source's name)
DLD-1 = test: Cytotoxicity against human DLD1 cells by MTT assay; conditions: read-out: ED50 (the source's name)
NCI-H661 = test: Cytotoxicity against human NCI-H661 cells by MTT assay; conditions: read-out: ED50 (the source's name)

For `COc1cccc2c1C(=O)c1c(O)c3c(c(O)c1C2=O)C[C@@](O)(C(=O)CO)C[C@@H]3O[C@H]1C[C@H](N)[C@H](O)[C@H](C)O1` [DOXORUBICIN], the EC50 (HeLa) was 0.22 µg/mL (≈ 0.405 µM), the EC50 [1] was 0.47 µg/mL (≈ 0.865 µM) and the EC50 (KB) was 0.25 µg/mL (≈ 0.46 µM). The EC50 [2] was 0.41 µg/mL (≈ 0.754 µM), the EC50 (DLD-1) was 0.57 µg/mL (≈ 1.05 µM) and the EC50 (NCI-H661) was 0.29 µg/mL (≈ 0.534 µM).
